Source: ChEMBL document CHEMBL1138945, “Development of N-4,6-pyrimidine-N-alkyl-N'-phenyl ureas as orally active inhibitors of lymphocyte specific tyrosine kinase” (Bioorg Med Chem Lett, 2006)
Values after ≈ are worked out from the molar mass of the structure shown.

How the values were obtained:
[1] = target: Tyrosine-protein kinase Lck (Homo sapiens, UniProt P06239); assay: Inhibition of Lck
[2] = Aqueous solubility of the compound; assay type: physicochemical; settings: buffer
Jurkat = assay: Inhibition of IL2 production in Jurkat E6-1 T cell line; assay type: functional, cell-based; settings: Homo sapiens
[3] = Intrinsic clearance in rat hepatocytes after 1 hr at 1 uM; assay type: ADME, cell-based, Liver, Hepatocyte
[4] = Cmax in orally dosed rat; assay type: ADME, organism-based; design: route oral; settings: in vivo, po
[5] = Oral bioavailability in rat; assay type: ADME, organism-based; settings: in vivo
Rattus norvegicus = assay: Inhibition of adjuvant-induced hind paw swelling in Lewis rat at 25 mg/kg, po after 7 days relative to control; assay type: functional; settings: 168 h

Tyrosine-protein kinase Lck, sequence (P06239 whole entry): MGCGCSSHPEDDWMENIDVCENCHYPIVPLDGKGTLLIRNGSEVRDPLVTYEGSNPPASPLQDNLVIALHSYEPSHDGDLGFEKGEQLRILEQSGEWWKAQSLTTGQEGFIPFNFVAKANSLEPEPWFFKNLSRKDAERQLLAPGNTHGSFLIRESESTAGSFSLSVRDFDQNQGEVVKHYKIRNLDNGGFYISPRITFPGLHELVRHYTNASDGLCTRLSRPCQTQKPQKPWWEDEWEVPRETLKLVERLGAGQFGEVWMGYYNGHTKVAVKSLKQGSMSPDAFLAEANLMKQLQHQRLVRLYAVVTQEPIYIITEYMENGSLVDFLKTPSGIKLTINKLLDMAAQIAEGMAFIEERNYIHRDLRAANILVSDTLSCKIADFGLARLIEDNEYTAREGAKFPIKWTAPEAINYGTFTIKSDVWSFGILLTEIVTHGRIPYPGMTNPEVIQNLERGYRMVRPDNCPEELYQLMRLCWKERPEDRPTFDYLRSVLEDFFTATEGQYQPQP

Row | Compound | IC50 [1] [µM] | other results
1 | CN1CCN(c2ccc(Nc3cc(N(C)C(=O)Nc4c(Cl)cccc4Cl)ncn3)cc2)CC1 | 0.006 | 
2 | CCN(CC)CCOc1ccc(Nc2cc(N(C)C(=O)Nc3c(Cl)cccc3C(F)(F)F)ncn2)cc1 | 0.096 | 
3 | CCN(CC)CCOc1ccc(Nc2cc(N(C)C(=O)Nc3cc(OC)ccc3C)ncn2)cc1 | 2.58 | 
4 | CN(C(=O)Nc1c(Cl)cccc1Cl)c1cc(NCCN2CCOCC2)ncn1 | > 10 | 
5 | CN1CCN(N(C(=O)Nc2c(Cl)cccc2Cl)c2cc(Nc3ccc(N4CCOCC4)cc3)ncn2)CC1 | 0.23 | 
6 | CCN(CC)CCOc1ccc(Nc2cc(N(C)C(=O)Nc3cc(NC(=O)c4cccc(C(F)(F)F)c4)ccc3C)ncn2)cc1 | 0.003 | solubility [2]: 3 µg/mL (≈ 4.72 µM); IC50 (Jurkat): < 0.01 µM
7 | CCN(CC)c1ccc(Nc2cc(N(C)C(=O)Nc3ccccc3Cl)ncn2)cc1 | 3.13 | 
8 | CN(C)CCCNc1cc(N(C)C(=O)Nc2c(Cl)cccc2Cl)ncn1 | 5.99 | 
9 | CCN(CC)CCOc1ccc(N(C(=O)Nc2c(Cl)cccc2Cl)c2cc(NC)ncn2)cc1 | > 10 | 
10 | CNc1cc(N(CCCN(C)C)C(=O)Nc2c(Cl)cccc2Cl)ncn1 | 2.35 | 
11 | CCN(CC)CCNc1cc(N(C)C(=O)Nc2c(Cl)cccc2Cl)ncn1 | > 10 | 
12 | CCN(CC)CCOc1ccc(Nc2cc(N(C)C(=O)Nc3cc(C(=O)Nc4cccc(C(F)(F)F)c4)ccc3C)ncn2)cc1 | 0.032 | 
13 | CN(C(=O)Nc1ccccc1Cl)c1cc(Nc2ccc(N3CCOCC3)cc2)ncn1 | 4.29 | 
14 | CN(C(=O)Nc1c(Cl)cccc1Cl)c1cc(NC2CCOCC2)ncn1 | > 10 | 
15 | CCN(CC)CCOc1ccc(Nc2cc(N(C)C(=O)Nc3c(C)cccc3Cl)ncn2)cc1 | 0.028 | solubility [2]: 34 µg/mL (≈ 70.4 µM); CLint scaled at 1 µM [3]: 1.5 L/h/kg; IC50 (Jurkat): 3.1 µM
16 | CCN(CC)CCOc1ccc(Nc2cc(N(C)C(=O)Nc3cc(C(=O)Nc4cc(C(C)(C)C)on4)ccc3C)ncn2)cc1 | 0.004 | solubility [2]: 1 µg/mL (≈ 1.63 µM); IC50 (Jurkat): < 0.01 µM
17 | CN(C(=O)Nc1c(Cl)cccc1Cl)c1cc(Nc2ccc(N3CCOCC3)cc2)ncn1 | 0.301 | solubility [2]: 3 µg/mL (≈ 6.34 µM); CLint scaled at 1 µM [3]: 2.88 L/h/kg; Cmax [4]: 9 ng/mL; bioavailability [5]: 0%; IC50 (Jurkat): 2.9 µM
18 | CCN(CC)CCOc1ccc(Nc2cc(N(C)C(=O)Nc3c(F)cccc3F)ncn2)cc1 | 0.418 | 
19 | CCN(CC)CCOc1ccc(Nc2cc(N(CCCN(C)C)C(=O)Nc3c(Cl)cccc3Cl)ncn2)cc1 | 0.229 | 

Row | Compound | IC50 [1] [µM] | other results
20 | CCN(CC)CCOc1ccc(Nc2cc(N(C)C(=O)Nc3ccccc3OC)ncn2)cc1 | > 10 | 
21 | CCN(CC)CCOc1ccc(Nc2cc(N(C)C(=O)Nc3c(Cl)cccc3Cl)ncn2)cc1 | 0.087 | solubility [2]: 38 µg/mL (≈ 75.5 µM); CLint scaled at 1 µM [3]: 2.4 L/h/kg; Cmax [4]: 394 ng/mL; bioavailability [5]: 66%; inhibition in vivo at 25 mg/kg (Rattus norvegicus): 63%; IC50 (Jurkat): 0.862 µM
22 | CN(C(=O)Nc1ccccc1Cl)c1cc(Nc2ccc(F)cc2)ncn1 | 1.82 | 
23 | CCN(CC)CCOc1ccc(Nc2cc(N(C)C(=O)Nc3cc(NC(=O)c4cc5ccccc5n4C)ccc3C)ncn2)cc1 | 0.149 | 
24 | CCN(CC)c1ccc(Nc2cc(N(Cc3ccccc3)C(=O)Nc3ccccc3Cl)ncn2)cc1 | > 10 | 
25 | Cc1cccc(Cl)c1NC(=O)N(C)c1cc(Nc2ccc(N3CCOCC3)cc2)ncn1 | 0.19 | 
26 | O=C(Nc1c(Cl)cccc1Cl)N(c1ccncc1)c1cc(Nc2ccc(N3CCOCC3)cc2)ncn1 | > 10 | 
27 | CCN(CC)c1ccc(Nc2cc(N(CCCN(C)C)C(=O)Nc3ccccc3Cl)ncn2)cc1 | 4.49 | 
28 | CCN(CC)c1ccc(Nc2cc(N(Cc3ccc(N(C)C)cc3)C(=O)Nc3ccccc3Cl)ncn2)cc1 | > 10 | 
29 | CCN(CC)c1ccc(Nc2cc(N(CCCN(C)C)C(=O)Nc3c(C)cccc3Cl)ncn2)cc1 | 0.971 | 
30 | CN1CCN(c2ccc(Nc3cc(N(C)C(=O)Nc4ccccc4Cl)ncn3)cc2)CC1 | 0.708 | 
31 | Cc1ccc(O)cc1NC(=O)N(C)c1cc(Nc2ccc(N3CCOCC3)cc2)ncn1 | 0.004 | 
32 | CCN(CC)CCOc1ccc(Nc2cc(N(C)C(=O)Nc3cc(O)ccc3C)ncn2)cc1 | 0.003 | solubility [2]: 41 µg/mL (≈ 88.3 µM); CLint scaled at 1 µM [3]: 6.48 L/h/kg; Cmax [4]: 3 ng/mL; bioavailability [5]: 1%; IC50 (Jurkat): 0.064 µM
33 | CN(C(=O)Nc1c(Cl)cccc1Cl)c1cc(Nc2ccc(F)cc2)ncn1 | 3.86 | 
34 | CN(C)CCCN(C(=O)Nc1c(Cl)cccc1Cl)c1cc(Nc2ccc(N3CCOCC3)cc2)ncn1 | 0.155 | 
35 | Cc1cccc(Cl)c1NC(=O)N(Cc1ccccc1)c1cc(Nc2ccc(F)cc2)ncn1 | 1.45 | 
36 | Cc1cccc(Cl)c1NC(=O)N(C)c1cc(Nc2ccc(N3CCN(C)CC3)cc2)ncn1 | 0.009 | solubility [2]: 2 µg/mL (≈ 4.29 µM); IC50 (Jurkat): 0.749 µM
37 | CCN(CC)CCOc1ccc(Nc2cc(N(C)C(=O)Nc3cc(NC(=O)c4cc5ccccc5s4)ccc3C)ncn2)cc1 | 0.052 | 
